≈ marks a conversion by molar mass, not a printed value.
Columns and labels:
[1] = system: Mycobacterium tuberculosis; experiment: Antitubercular activity against Mycobacterium tuberculosis H37Rv by broth dilution method; type: functional
[2] = system: Mycobacterium tuberculosis; experiment: Antitubercular activity against Mycobacterium tuberculosis; type: functional
[3] = system: Mycobacterium tuberculosis; experiment: Antitubercular activity against Mycobacterium tuberculosis spec.192; type: functional
[4] = system: Mycobacterium tuberculosis; experiment: Antitubercular activity against Mycobacterium tuberculosis spec.210; type: functional
[5] = system: Mycobacterium tuberculosis; experiment: Antitubercular activity against Mycobacterium tuberculosis H37Rv; type: functional
[6] = system: Mycobacterium tuberculosis; experiment: Antitubercular activity against Mycobacterium tuberculosis H37Rv by Lowensteine-Jensen method; type: functional
HepG2 = experiment: Cytotoxicity against human HepG2 cells; type: cell-based
[7] = system: Mycobacterium tuberculosis; experiment: Growth inhibition of Mycobacterium tuberculosis H37Rv at 62.5 ug/ml by broth dilution method relative to control; type: functional; conditions: read-out: GI
[8] = system: Mycobacterium tuberculosis; experiment: Potency index, ratio of pyrazinamide MIC to compound MIC for Mycobacterium tuberculosis; type: functional
[9] = system: Mycobacterium tuberculosis; experiment: Potency index, ratio of pyrazinamide MIC to compound MIC for Mycobacterium tuberculosis H37Rv; type: functional

| SMILES | MIC [3] [µM] | MIC [4] [µM] | MIC [5] | also measured |
| --- | --- | --- | --- | --- |
| CCOC(=O)C1=C(C)NC(=O)NC1c1cn(-c2ccccc2)nc1-c1ccc([N+](=O)[O-])cc1 (stereo not drawn) |  |  |  | MIC [1]: 0.02 µg/mL (≈ 0.0447 µM) |
| CCOC(=O)C1=C(C)NC(=O)NC1c1cn(-c2ccccc2)nc1-c1ccc(F)cc1 (stereo not drawn) |  |  |  | MIC [1]: 0.02 µg/mL (≈ 0.0476 µM) |
| Nc1nc(-c2ccc(O)cc2)cc(-c2cn(-c3ccccc3)nc2-c2ccc(F)cc2)n1 |  |  |  | IC90 [2]: 0.88 µg/mL (≈ 2.08 µM) |
| O=C(Nc1ccccc1)N1CCc2c(cnn2Cc2cn(-c3ccc(I)cc3)nn2)C1 | 24.7 to 200 (≈ 13 to 105 µg/mL) | 24.7 to 200 (≈ 13 to 105 µg/mL) | 24.7 to 200 µM |  |
| O=C(Nc1ccccc1)N1CCc2c(cnn2Cc2cn(-c3ccccc3Br)nn2)C1 | 24.7 to 200 (≈ 11.8 to 95.7 µg/mL) | 24.7 to 200 (≈ 11.8 to 95.7 µg/mL) | 24.7 to 200 µM |  |
| O=C(NCCCn1ncc2ccc([N+](=O)[O-])cc21)N1C(=O)C(Cl)C1c1cccc(Br)c1 (stereo not drawn) |  |  |  | MIC [6]: 6.25 to 50 µg/mL (≈ 12.3 to 98.7 µM) |
| O=C(Nc1ccccc1)N1CCc2c(cnn2Cc2cn(-c3ccccc3)nn2)C1 | 24.7 to 200 (≈ 9.87 to 79.9 µg/mL) | 24.7 to 200 (≈ 9.87 to 79.9 µg/mL) | 24.7 to 200 µM |  |
| O=C(Nc1ccccc1)N1CCc2c(cnn2Cc2cn(-c3cccc(Cl)c3)nn2)C1 | 24.7 to 200 (≈ 10.7 to 86.8 µg/mL) | 24.7 to 200 (≈ 10.7 to 86.8 µg/mL) | 24.7 to 200 µM |  |
| O=C(NCCCn1ncc2ccc([N+](=O)[O-])cc21)N1C(=O)C(Cl)C1c1ccccc1 (stereo not drawn) |  |  |  | MIC [6]: 6.25 to 50 µg/mL (≈ 14.6 to 117 µM) |
| CC1=NN(C(=O)c2cc(-c3ccc(Cl)cc3)n[nH]2)C(=O)/C1=N\Nc1ccc(F)cc1 |  |  | 0.35 µg/mL | IC50 (HepG2): > 500 µM |
| COc1ccc(C2C(Cl)C(=O)N2C(=O)NCCCn2ncc3ccc([N+](=O)[O-])cc32)cc1 (stereo not drawn) |  |  |  | MIC [6]: 6.25 to 50 µg/mL (≈ 13.7 to 109 µM) |
| Cc1nn(-c2ccccc2)c2c1C(c1cccc([N+](=O)[O-])c1)c1c(N)nc(=O)[nH]c1O2 (stereo not drawn) |  |  |  | inhibition of growth at 62.5 µg/mL [7]: 98% |
| O=C(Nc1ccccc1)N1CCc2c(cnn2Cc2cn(-c3ccc(F)cc3)nn2)C1 | 24.7 to 200 (≈ 10.3 to 83.5 µg/mL) | 24.7 to 200 (≈ 10.3 to 83.5 µg/mL) | 24.7 to 200 µM |  |
| CC1=NN(C(=O)c2cc(-c3ccc(Cl)cc3)n[nH]2)C(=O)/C1=N\Nc1ccc(Cl)cc1 |  |  | 0.6 µg/mL | IC50 (HepG2): 306 µM |
| O=C(Nc1ccccc1)N1CCc2c(cnn2Cc2cn(-c3ccc(Cl)cc3)nn2)C1 | 24.7 to 200 (≈ 10.7 to 86.8 µg/mL) | 24.7 to 200 (≈ 10.7 to 86.8 µg/mL) | 24.7 to 200 µM |  |
| O=C(NCCCn1ncc2ccc([N+](=O)[O-])cc21)N1C(=O)C(Cl)C1c1ccc(O)cc1 (stereo not drawn) |  |  |  | MIC [6]: 6.25 to 50 µg/mL (≈ 14.1 to 113 µM) |

| SMILES | MIC [3] [µM] | MIC [4] [µM] | MIC [5] | also measured |
| --- | --- | --- | --- | --- |
| O=C(Nc1ccccc1)N1CCc2c(cnn2Cc2cn(-c3ccccc3Cl)nn2)C1 | 24.7 to 200 (≈ 10.7 to 86.8 µg/mL) | 24.7 to 200 (≈ 10.7 to 86.8 µg/mL) | 24.7 to 200 µM |  |
| O=C(NCCCn1ncc2ccc([N+](=O)[O-])cc21)N1C(=O)C(Cl)C1c1ccc([N+](=O)[O-])cc1 (stereo not drawn) |  |  |  | MIC [6]: 6.25 to 50 µg/mL (≈ 13.2 to 106 µM) |
| O=C(Nc1ccccc1)N1CCc2c(cnn2Cc2cn(-c3ccc(Cl)cc3Cl)nn2)C1 | 24.7 to 200 (≈ 11.6 to 93.7 µg/mL) | 24.7 to 200 (≈ 11.6 to 93.7 µg/mL) | 24.7 to 200 µM |  |
| O=C(Nc1ccccc1)N1CCc2c(cnn2Cc2cn(-c3ccc(F)c(Cl)c3)nn2)C1 | 24.7 to 200 (≈ 11.2 to 90.4 µg/mL) | 24.7 to 200 (≈ 11.2 to 90.4 µg/mL) | 24.7 to 200 µM |  |
| O=C(NCCCn1ncc2ccc([N+](=O)[O-])cc21)N1C(=O)C(Cl)C1c1cccc(Cl)c1 (stereo not drawn) |  |  |  | MIC [6]: 6.25 to 50 µg/mL (≈ 13.5 to 108 µM) |
| Cc1ccc(-n2cc(Cn3ncc4c3CCN(C(=O)Nc3ccccc3)C4)nn2)cc1 | 24.7 to 200 (≈ 10.2 to 82.7 µg/mL) | 24.7 to 200 (≈ 10.2 to 82.7 µg/mL) | 24.7 to 200 µM |  |
| O=C(Nc1ccccc1)N1CCc2c(cnn2Cc2cn(-c3ccc(Br)c(OC(F)(F)F)c3)nn2)C1 | 24.7 to 200 (≈ 13.9 to 112 µg/mL) | 24.7 to 200 (≈ 13.9 to 112 µg/mL) | 24.7 to 200 µM |  |
| COc1ccccc1C1C(Cl)C(=O)N1C(=O)NCCCn1ncc2ccc([N+](=O)[O-])cc21 (stereo not drawn) |  |  |  | MIC [6]: 6.25 to 50 µg/mL (≈ 13.7 to 109 µM) |
| Fc1ccc(-c2nnc(-c3n[nH]cc3-c3ccc(Cl)cc3)o2)cc1 |  |  |  | MIC [2]: 25 µg/mL (≈ 73.4 µM); Ratio [8]: 4 |
| Cc1cc(-n2nc(C(=O)NCc3ccc(OC(F)(F)F)cc3)cc2-c2cccnc2)c2cccc(C(F)(F)F)c2n1 |  |  | 3.13 µg/mL | Ratio [9]: 16 |
| O=C(NCCCn1ncc2ccc([N+](=O)[O-])cc21)N1C(=O)C(Cl)C1c1ccccc1[N+](=O)[O-] (stereo not drawn) |  |  |  | MIC [6]: 6.25 to 50 µg/mL (≈ 13.2 to 106 µM) |
| O=C(Nc1ccccc1)N1CCc2c(cnn2Cc2cn(-c3ccc([N+](=O)[O-])cc3)nn2)C1 | 24.7 to 200 (≈ 11 to 88.9 µg/mL) | 24.7 to 200 (≈ 11 to 88.9 µg/mL) | 24.7 to 200 µM |  |
| O=C(Nc1ccccc1)N1CCc2c(cnn2Cc2cn(-c3ccccc3I)nn2)C1 | 24.7 to 200 (≈ 13 to 105 µg/mL) | 24.7 to 200 (≈ 13 to 105 µg/mL) | 24.7 to 200 µM |  |
| COc1ccc(-n2cc(Cn3ncc4c3CCN(C(=O)Nc3ccccc3)C4)nn2)cc1OC | 24.7 to 200 (≈ 11.4 to 91.9 µg/mL) | 24.7 to 200 (≈ 11.4 to 91.9 µg/mL) | 24.7 to 200 µM |  |
| O=C(NCCCn1ncc2ccc([N+](=O)[O-])cc21)N1C(=O)C(Cl)C1c1ccc(Br)cc1 (stereo not drawn) |  |  |  | MIC [6]: 6.25 to 50 µg/mL (≈ 12.3 to 98.7 µM) |

From ChEMBL document CHEMBL4130388, “Recent advances of pyrazole-containing derivatives as anti-tubercular agents” (Eur J Med Chem, 2017)
